Results published in the kinase profiling compilation of Christmann-Franck et al. (2016).

Assays:
Assay in all cases: radiometric filter-binding kinase assay, Kinase HotSpot
Settings in all cases: compound 0.5 µM; ATP 10 µM
MAPK9 (human) = MAPK9 (human) (UniProt P45984)
MKNK2 (human) = MKNK2 (human) (UniProt Q9HBH9)
PRKCB2 (human) = PRKCB2 (human) (UniProt P05771)
STK11 (human) = STK11 (human) (UniProt Q15831)
ZAP70 (human) = ZAP70 (human) (UniProt P43403)
MAP3K11 (human) = MAP3K11 (human) (UniProt Q16584)
CAMK4 (human) = CAMK4 (human) (UniProt Q16566)
WEE1 (human) = WEE1 (human) (UniProt P30291)
Sequence of WEE1 (human) (P30291 whole entry, looked up): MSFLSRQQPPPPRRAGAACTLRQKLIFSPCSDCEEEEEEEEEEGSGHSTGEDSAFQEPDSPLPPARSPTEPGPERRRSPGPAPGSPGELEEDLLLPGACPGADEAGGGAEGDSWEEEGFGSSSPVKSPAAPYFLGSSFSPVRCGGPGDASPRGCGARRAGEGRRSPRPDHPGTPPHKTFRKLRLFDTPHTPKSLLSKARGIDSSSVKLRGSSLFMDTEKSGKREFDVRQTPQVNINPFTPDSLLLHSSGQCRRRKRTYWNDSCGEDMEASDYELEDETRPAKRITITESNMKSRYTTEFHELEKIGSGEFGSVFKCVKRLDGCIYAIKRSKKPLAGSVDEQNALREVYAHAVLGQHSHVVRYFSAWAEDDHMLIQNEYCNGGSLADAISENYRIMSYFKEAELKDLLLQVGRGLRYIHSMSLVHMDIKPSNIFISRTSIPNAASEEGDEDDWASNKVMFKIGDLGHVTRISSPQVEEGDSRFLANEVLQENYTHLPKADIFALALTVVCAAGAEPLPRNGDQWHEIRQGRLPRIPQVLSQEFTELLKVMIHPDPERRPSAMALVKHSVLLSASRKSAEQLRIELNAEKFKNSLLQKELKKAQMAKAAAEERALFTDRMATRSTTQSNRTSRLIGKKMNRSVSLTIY

VRK1 (human) = VRK1 (human) (UniProt Q99986)
STK24 (human) = STK24 (human) (UniProt Q9Y6E0)
ROCK2 (human) = ROCK2 (human) (UniProt O75116)
MYLK2 (human) = MYLK2 (human) (UniProt Q9H1R3)
PRKCE (human) = PRKCE (human) (UniProt Q02156)
BRSK1 (human) = BRSK1 (human) (UniProt Q8TDC3)
CDK2 CCNA2 (human) = CDK2 CCNA2 (human) (UniProt P24941+P20248)
MAP3K3 (human) = MAP3K3 (human) (UniProt Q99759)
NEK11 (human) = NEK11 (human) (UniProt Q8NG66)
Sequence of NEK11 (human) (Q8NG66 whole entry, looked up): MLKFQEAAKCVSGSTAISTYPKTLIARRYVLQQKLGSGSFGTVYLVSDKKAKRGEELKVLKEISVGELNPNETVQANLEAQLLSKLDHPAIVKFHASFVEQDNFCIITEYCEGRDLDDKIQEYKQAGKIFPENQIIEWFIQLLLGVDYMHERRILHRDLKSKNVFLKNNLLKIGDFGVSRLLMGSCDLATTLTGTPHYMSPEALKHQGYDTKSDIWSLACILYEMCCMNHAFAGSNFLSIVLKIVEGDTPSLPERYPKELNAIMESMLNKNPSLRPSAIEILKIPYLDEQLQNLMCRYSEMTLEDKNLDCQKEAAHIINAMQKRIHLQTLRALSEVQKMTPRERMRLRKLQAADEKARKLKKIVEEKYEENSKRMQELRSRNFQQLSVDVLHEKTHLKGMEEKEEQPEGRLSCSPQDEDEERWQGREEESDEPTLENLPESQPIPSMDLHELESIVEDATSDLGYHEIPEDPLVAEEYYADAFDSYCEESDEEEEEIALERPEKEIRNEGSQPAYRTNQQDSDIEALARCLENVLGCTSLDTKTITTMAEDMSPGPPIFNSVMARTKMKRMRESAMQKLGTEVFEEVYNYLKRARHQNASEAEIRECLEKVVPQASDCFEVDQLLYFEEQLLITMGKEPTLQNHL

CDC42BPB (human) = CDC42BPB (human) (UniProt Q9Y5S2)
PAK3 (human) = PAK3 (human) (UniProt O75914)
Sequence of PAK3 (human) (O75914 whole entry, looked up): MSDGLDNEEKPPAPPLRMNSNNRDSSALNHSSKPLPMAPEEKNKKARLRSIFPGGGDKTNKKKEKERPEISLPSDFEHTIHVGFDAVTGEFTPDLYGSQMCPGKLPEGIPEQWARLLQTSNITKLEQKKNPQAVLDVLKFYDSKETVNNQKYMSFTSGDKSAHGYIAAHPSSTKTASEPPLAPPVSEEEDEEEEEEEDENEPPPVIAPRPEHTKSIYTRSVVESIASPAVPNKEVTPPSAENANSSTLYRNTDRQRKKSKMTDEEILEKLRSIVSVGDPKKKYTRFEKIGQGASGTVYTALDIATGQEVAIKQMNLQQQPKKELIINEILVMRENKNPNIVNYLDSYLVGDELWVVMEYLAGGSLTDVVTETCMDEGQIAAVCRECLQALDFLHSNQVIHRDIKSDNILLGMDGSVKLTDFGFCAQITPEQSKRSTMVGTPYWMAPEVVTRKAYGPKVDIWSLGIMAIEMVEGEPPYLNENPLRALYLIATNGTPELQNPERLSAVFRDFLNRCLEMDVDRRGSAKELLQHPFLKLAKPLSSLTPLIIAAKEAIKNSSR

PHKG1 (human) = PHKG1 (human) (UniProt Q16816)
MARK4 (human) = MARK4 (human) (UniProt Q96L34)
TXK (human) = TXK (human) (UniProt P42681)
DAPK3 (human) = DAPK3 (human) (UniProt O43293)
ADRBK2 (human) = ADRBK2 (human) (UniProt P35626)
EPHA4 (human) = EPHA4 (human) (UniProt P54764)
IGF1R (human) = IGF1R (human) (UniProt P08069)
ALK (human) = ALK (human) (UniProt Q9UM73)
HIPK2 (human) = HIPK2 (human) (UniProt Q9H2X6)
SGK2 (human) = SGK2 (human) (UniProt Q9HBY8)
NTRK2 (human) = NTRK2 (human) (UniProt Q16620)
MELK (human) = MELK (human) (UniProt Q14680)
RPS6KA5 KD2 (human) = RPS6KA5 KD2 (human) (UniProt O75582)
PRKCZ (human) = PRKCZ (human) (UniProt Q05513)
HIPK4 (human) = HIPK4 (human) (UniProt Q8NE63)
PAK6 (human) = PAK6 (human) (UniProt Q9NQU5)
MARK1 (human) = MARK1 (human) (UniProt Q9P0L2)
MET (human) = MET (human) (UniProt P08581)
MAPKAPK5 (human) = MAPKAPK5 (human) (UniProt Q8IW41)
Sequence of MAPKAPK5 (human) (Q8IW41 whole entry, looked up): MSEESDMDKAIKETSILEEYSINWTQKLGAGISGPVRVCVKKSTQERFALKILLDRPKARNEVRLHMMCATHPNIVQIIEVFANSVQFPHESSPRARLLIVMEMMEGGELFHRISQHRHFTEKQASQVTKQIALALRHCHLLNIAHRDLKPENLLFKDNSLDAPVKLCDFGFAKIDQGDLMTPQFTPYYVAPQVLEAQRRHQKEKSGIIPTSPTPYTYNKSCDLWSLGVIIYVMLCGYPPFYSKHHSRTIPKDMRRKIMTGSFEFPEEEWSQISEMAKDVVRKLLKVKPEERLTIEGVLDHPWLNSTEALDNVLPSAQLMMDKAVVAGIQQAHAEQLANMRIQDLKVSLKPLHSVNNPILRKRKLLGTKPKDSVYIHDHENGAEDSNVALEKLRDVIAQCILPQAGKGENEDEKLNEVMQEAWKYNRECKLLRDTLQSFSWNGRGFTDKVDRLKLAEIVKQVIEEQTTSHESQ

RET (human) = RET (human) (UniProt P07949)
WNK3 (human) = WNK3 (human) (UniProt Q9BYP7)
Sequence of WNK3 (human) (Q9BYP7 whole entry, looked up): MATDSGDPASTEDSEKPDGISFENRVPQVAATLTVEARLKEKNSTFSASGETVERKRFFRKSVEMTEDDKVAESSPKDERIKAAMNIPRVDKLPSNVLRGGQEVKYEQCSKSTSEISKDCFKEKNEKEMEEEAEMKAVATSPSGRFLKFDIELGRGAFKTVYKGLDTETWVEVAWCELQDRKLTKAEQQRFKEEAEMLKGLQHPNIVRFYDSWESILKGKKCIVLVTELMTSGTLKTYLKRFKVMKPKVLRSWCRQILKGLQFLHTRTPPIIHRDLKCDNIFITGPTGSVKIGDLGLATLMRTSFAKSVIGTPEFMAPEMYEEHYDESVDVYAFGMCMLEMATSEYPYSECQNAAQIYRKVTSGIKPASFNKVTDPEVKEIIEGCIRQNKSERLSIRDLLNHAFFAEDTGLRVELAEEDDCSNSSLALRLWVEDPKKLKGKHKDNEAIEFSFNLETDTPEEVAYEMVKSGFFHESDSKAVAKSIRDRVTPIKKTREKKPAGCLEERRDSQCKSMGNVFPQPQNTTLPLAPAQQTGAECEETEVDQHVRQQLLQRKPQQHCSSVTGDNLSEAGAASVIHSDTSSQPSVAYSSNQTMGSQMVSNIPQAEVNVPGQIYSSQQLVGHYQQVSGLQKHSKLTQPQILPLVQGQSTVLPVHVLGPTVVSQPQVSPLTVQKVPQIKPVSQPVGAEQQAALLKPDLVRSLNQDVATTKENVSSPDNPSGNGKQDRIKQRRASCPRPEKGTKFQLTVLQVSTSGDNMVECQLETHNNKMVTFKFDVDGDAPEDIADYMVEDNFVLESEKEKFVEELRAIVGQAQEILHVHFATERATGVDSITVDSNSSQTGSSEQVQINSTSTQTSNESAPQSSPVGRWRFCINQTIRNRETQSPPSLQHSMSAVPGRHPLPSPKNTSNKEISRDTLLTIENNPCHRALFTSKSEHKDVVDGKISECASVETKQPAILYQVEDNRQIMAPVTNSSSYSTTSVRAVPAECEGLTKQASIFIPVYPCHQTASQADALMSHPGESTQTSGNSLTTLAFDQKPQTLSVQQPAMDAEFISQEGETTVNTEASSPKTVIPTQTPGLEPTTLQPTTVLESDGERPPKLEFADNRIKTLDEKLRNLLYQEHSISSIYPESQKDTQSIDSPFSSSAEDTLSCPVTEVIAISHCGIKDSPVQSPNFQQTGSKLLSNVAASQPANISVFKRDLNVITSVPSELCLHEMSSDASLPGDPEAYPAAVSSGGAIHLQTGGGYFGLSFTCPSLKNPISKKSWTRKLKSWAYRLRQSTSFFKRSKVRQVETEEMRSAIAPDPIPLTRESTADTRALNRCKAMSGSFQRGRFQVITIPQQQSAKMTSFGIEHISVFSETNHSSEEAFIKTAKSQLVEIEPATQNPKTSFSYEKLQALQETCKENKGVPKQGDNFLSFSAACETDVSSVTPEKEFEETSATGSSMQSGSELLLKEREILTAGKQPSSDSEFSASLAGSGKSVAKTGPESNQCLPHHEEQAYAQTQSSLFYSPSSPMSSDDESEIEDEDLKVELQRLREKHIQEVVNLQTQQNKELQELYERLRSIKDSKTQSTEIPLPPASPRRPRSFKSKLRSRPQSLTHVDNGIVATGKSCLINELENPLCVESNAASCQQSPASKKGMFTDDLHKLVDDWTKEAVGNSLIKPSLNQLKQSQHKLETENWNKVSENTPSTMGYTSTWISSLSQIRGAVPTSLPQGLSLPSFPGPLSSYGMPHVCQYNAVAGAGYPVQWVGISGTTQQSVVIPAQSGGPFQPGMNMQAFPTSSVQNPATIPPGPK

PAK1 (human) = PAK1 (human) (UniProt Q13153)
CAMKK1 (human) = CAMKK1 (human) (UniProt Q8N5S9)
Sequence of CAMKK1 (human) (Q8N5S9 whole entry, looked up): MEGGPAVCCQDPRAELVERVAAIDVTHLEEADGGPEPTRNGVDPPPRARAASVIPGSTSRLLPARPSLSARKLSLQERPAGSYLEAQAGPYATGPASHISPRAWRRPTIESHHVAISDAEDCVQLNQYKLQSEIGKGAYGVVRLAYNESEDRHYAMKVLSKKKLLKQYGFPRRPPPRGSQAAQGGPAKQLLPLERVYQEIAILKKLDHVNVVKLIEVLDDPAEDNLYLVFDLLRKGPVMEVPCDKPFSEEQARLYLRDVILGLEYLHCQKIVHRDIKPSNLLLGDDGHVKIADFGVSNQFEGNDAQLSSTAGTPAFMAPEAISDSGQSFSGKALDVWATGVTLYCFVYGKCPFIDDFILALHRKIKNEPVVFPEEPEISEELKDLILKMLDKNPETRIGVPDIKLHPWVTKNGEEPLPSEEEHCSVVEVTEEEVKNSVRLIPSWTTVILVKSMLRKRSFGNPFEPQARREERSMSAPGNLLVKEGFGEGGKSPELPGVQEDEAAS

Sequence of STK11 (human) (Q15831 whole entry, looked up): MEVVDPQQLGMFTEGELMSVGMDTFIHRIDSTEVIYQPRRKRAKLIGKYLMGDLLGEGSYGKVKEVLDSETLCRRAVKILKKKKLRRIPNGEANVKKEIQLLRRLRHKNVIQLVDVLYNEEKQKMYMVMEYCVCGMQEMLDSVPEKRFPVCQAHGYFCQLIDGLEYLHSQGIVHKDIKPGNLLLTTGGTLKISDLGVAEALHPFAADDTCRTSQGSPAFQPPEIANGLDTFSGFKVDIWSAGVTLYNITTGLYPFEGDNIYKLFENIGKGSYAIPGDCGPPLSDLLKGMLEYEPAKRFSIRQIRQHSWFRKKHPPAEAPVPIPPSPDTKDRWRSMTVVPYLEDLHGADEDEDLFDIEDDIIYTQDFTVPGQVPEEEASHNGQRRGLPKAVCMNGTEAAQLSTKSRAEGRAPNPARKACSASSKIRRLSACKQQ

Compound `Clc1ccc(Nc2nnc(Cc3ccncc3)c3ccccc23)cc1` has a residual activity (MAPK9 (human)) of 97.5%, a residual activity (MKNK2 (human)) of 101% and a residual activity (PRKCB2 (human)) of 97.2%. The residual activity (STK11 (human)) was 97.3%, the residual activity (ZAP70 (human)) was 96.6% and the residual activity (MAP3K11 (human)) was 106%. The residual activity (CAMK4 (human)) was 93.4%, the residual activity (WEE1 (human)) was 109% and the residual activity (VRK1 (human)) was 109%. The residual activity (STK24 (human)) was 98.7%, the residual activity (ROCK2 (human)) was 95.4% and the residual activity (MYLK2 (human)) was 103%. For the same compound, the residual activity (PRKCE (human)) was 100%, the residual activity (BRSK1 (human)) was 93.1% and the residual activity (CDK2 CCNA2 (human)) was 87.7%. The residual activity (MAP3K3 (human)) was 118%, the residual activity (NEK11 (human)) was 87% and the residual activity (CDC42BPB (human)) was 99.5%. The residual activity (PAK3 (human)) was 107%, the residual activity (PHKG1 (human)) was 94.2% and the residual activity (MARK4 (human)) was 104%. For the same compound, the residual activity (TXK (human)) was 110%, the residual activity (DAPK3 (human)) was 107% and the residual activity (ADRBK2 (human)) was 92.9%. For the same compound, the residual activity (EPHA4 (human)) was 102%, the residual activity (IGF1R (human)) was 108% and the residual activity (ALK (human)) was 102%. For the same compound, the residual activity (HIPK2 (human)) was 101%, the residual activity (SGK2 (human)) was 104% and the residual activity (NTRK2 (human)) was 102%. For the same compound, the residual activity (MELK (human)) was 83.7%, the residual activity (RPS6KA5 KD2 (human)) was 85.5% and the residual activity (PRKCZ (human)) was 69.5%. For the same compound, the residual activity (HIPK4 (human)) was 95.9%, the residual activity (PAK6 (human)) was 107% and the residual activity (MARK1 (human)) was 124%. The residual activity (MET (human)) was 94%, the residual activity (MAPKAPK5 (human)) was 97.8% and the residual activity (RET (human)) was 89.1%. It also gave a residual activity (WNK3 (human)) of 99.1%, a residual activity (PAK1 (human)) of 116% and a residual activity (CAMKK1 (human)) of 97.2%.
Work on `O=C(NC(NC(=S)Nc1ccc(F)c([N+](=O)[O-])c1)C(Cl)(Cl)Cl)C(c1ccccc1)c1ccccc1` (stereo not drawn) yielded a residual activity (MAPK9 (human)) of 88.6%, a residual activity (MKNK2 (human)) of 135% and a residual activity (PRKCB2 (human)) of 107%. The residual activity (STK11 (human)) was 94.2%, the residual activity (ZAP70 (human)) was 94.2% and the residual activity (MAP3K11 (human)) was 102%. It also gave a residual activity (CAMK4 (human)) of 98.5%, a residual activity (WEE1 (human)) of 91.8% and a residual activity (VRK1 (human)) of 96.7%. The residual activity (STK24 (human)) was 92.8%, the residual activity (ROCK2 (human)) was 109% and the residual activity (MYLK2 (human)) was 104%. It also gave a residual activity (PRKCE (human)) of 109%, a residual activity (BRSK1 (human)) of 98.3% and a residual activity (CDK2 CCNA2 (human)) of 102%. For the same compound, the residual activity (MAP3K3 (human)) was 118%, the residual activity (NEK11 (human)) was 92.2% and the residual activity (CDC42BPB (human)) was 97.2%. The residual activity (PAK3 (human)) was 91.9%, the residual activity (PHKG1 (human)) was 104% and the residual activity (MARK4 (human)) was 104%. For the same compound, the residual activity (TXK (human)) was 108%, the residual activity (DAPK3 (human)) was 103% and the residual activity (ADRBK2 (human)) was 98.3%. It also gave a residual activity (EPHA4 (human)) of 101%, a residual activity (IGF1R (human)) of 93.7% and a residual activity (ALK (human)) of 110%. For the same compound, the residual activity (HIPK2 (human)) was 118%, the residual activity (SGK2 (human)) was 119% and the residual activity (NTRK2 (human)) was 97.7%. The residual activity (MELK (human)) was 102%, the residual activity (RPS6KA5 KD2 (human)) was 113% and the residual activity (PRKCZ (human)) was 98%. The residual activity (HIPK4 (human)) was 104%, the residual activity (PAK6 (human)) was 101% and the residual activity (MARK1 (human)) was 101%. For the same compound, the residual activity (MET (human)) was 101%, the residual activity (MAPKAPK5 (human)) was 102% and the residual activity (RET (human)) was 103%. It also gave a residual activity (WNK3 (human)) of 108%, a residual activity (PAK1 (human)) of 86% and a residual activity (CAMKK1 (human)) of 128%.
`CCN1/C(=C/C(C)=O)Sc2ccc(OC)cc21` gave a residual activity (MAPK9 (human)) of 101%, a residual activity (MKNK2 (human)) of 93.8% and a residual activity (PRKCB2 (human)) of 99.3%. For the same compound, the residual activity (STK11 (human)) was 86.6%, the residual activity (ZAP70 (human)) was 103% and the residual activity (MAP3K11 (human)) was 102%. It also gave a residual activity (CAMK4 (human)) of 99.9%, a residual activity (WEE1 (human)) of 102% and a residual activity (VRK1 (human)) of 98.2%. For the same compound, the residual activity (STK24 (human)) was 82.2%, the residual activity (ROCK2 (human)) was 90.7% and the residual activity (MYLK2 (human)) was 95.1%. For the same compound, the residual activity (PRKCE (human)) was 95.2%, the residual activity (BRSK1 (human)) was 89.4% and the residual activity (CDK2 CCNA2 (human)) was 89.7%. For the same compound, the residual activity (MAP3K3 (human)) was 114%, the residual activity (NEK11 (human)) was 104% and the residual activity (CDC42BPB (human)) was 114%. The residual activity (PAK3 (human)) was 96.3%, the residual activity (PHKG1 (human)) was 89.5% and the residual activity (MARK4 (human)) was 102%. The residual activity (TXK (human)) was 100%, the residual activity (DAPK3 (human)) was 98.7% and the residual activity (ADRBK2 (human)) was 82.9%. The residual activity (EPHA4 (human)) was 95.5%, the residual activity (IGF1R (human)) was 98.3% and the residual activity (ALK (human)) was 105%. It also gave a residual activity (HIPK2 (human)) of 100%, a residual activity (SGK2 (human)) of 93.7% and a residual activity (NTRK2 (human)) of 104%. For the same compound, the residual activity (MELK (human)) was 94.6%, the residual activity (RPS6KA5 KD2 (human)) was 87.4% and the residual activity (PRKCZ (human)) was 98%. For the same compound, the residual activity (HIPK4 (human)) was 94%, the residual activity (PAK6 (human)) was 95.6% and the residual activity (MARK1 (human)) was 91%. The residual activity (MET (human)) was 103%, the residual activity (MAPKAPK5 (human)) was 112% and the residual activity (RET (human)) was 96.5%. The residual activity (WNK3 (human)) was 88.1%, the residual activity (PAK1 (human)) was 92.9% and the residual activity (CAMKK1 (human)) was 105%.
In the case of `CC(C)[C@H](CO)Nc1nc(Nc2cccc(Cl)c2)c2ncn(C(C)C)c2n1`, the residual activity (MAPK9 (human)) is reported as 102%, the residual activity (MKNK2 (human)) is reported as 87.5% and the residual activity (PRKCB2 (human)) is reported as 88.6%. The residual activity (STK11 (human)) was 84.4%, the residual activity (ZAP70 (human)) was 99.7% and the residual activity (MAP3K11 (human)) was 40.2%. The residual activity (CAMK4 (human)) was 95.3%, the residual activity (WEE1 (human)) was 82.6% and the residual activity (VRK1 (human)) was 99.5%. It also gave a residual activity (STK24 (human)) of 80.8%, a residual activity (ROCK2 (human)) of 100% and a residual activity (MYLK2 (human)) of 97.1%. It also gave a residual activity (PRKCE (human)) of 115%, a residual activity (BRSK1 (human)) of 100% and a residual activity (CDK2 CCNA2 (human)) of 6.91%. The residual activity (MAP3K3 (human)) was 102%, the residual activity (NEK11 (human)) was 67.1% and the residual activity (CDC42BPB (human)) was 108%. For the same compound, the residual activity (PAK3 (human)) was 94.2%, the residual activity (PHKG1 (human)) was 89.9% and the residual activity (MARK4 (human)) was 89.8%. The residual activity (TXK (human)) was 54.1%, the residual activity (DAPK3 (human)) was 104% and the residual activity (ADRBK2 (human)) was 99.1%. It also gave a residual activity (EPHA4 (human)) of 102%, a residual activity (IGF1R (human)) of 100% and a residual activity (ALK (human)) of 100%. It also gave a residual activity (HIPK2 (human)) of 86.3%, a residual activity (SGK2 (human)) of 103% and a residual activity (NTRK2 (human)) of 33.4%. The residual activity (MELK (human)) was 69.5%, the residual activity (RPS6KA5 KD2 (human)) was 100% and the residual activity (PRKCZ (human)) was 102%. The residual activity (HIPK4 (human)) was 88.7%, the residual activity (PAK6 (human)) was 111% and the residual activity (MARK1 (human)) was 94.5%. For the same compound, the residual activity (MET (human)) was 96.2%, the residual activity (MAPKAPK5 (human)) was 97.6% and the residual activity (RET (human)) was 81.4%. For the same compound, the residual activity (WNK3 (human)) was 89.1%, the residual activity (PAK1 (human)) was 92.8% and the residual activity (CAMKK1 (human)) was 101%.
